Data taken from patent US6355799B1, “Substituted benzene compounds, process for their preparation, and herbicidal and defoliant compositions containing them” (ISK Americas Incorporated, priority 1997, dated 2002).

Tests used:
Assay type in all cases: in vivo
[1] = system: ivyleaf morningglory (Ipomoea hederacea, IPOHE); experiment: Post-emerge test, greenhouse herbicide activity screening; conditions: post-emerge, 14 days after application, rating scale 0-100
In short: (§1)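 Compounds in acetone were track-sprayed at 15–1000 g ai/ha: pre-emergence onto soil sown the previous day, then top-watered to incorporate and later bottom-watered; post-emergence onto 2–3 leaf plants with 0.25% v/v surfactant, bottom-watered only. Ratings on a 0–100 phytotoxicity scale were taken at day 14.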

[2] = system: johnsongrass (Sorghum halepense, SORHA); experiment: as above; conditions: post-emerge, 14 days after application, rating scale 0-100
In short: as §1

[3] = system: lambsquarters (Chenopodium album, CHEAL); experiment: as above; conditions: post-emerge, 14 days after application, rating scale 0-100
In short: as §1

[4] = system: redroot pigweed (Amaranthus retroflexus, AMARE); experiment: as above; conditions: post-emerge, 14 days after application
In short: as §1

[5] = system: large crabgrass (Digitaria sanguinalis, DIGSA); experiment: as above; conditions: post-emerge, 14 days after application, rating scale 0-100
In short: as §1

[6] = system: sicklepod (Cassia obtusifolia, CASOB); experiment: as above; conditions: post-emerge, 14 days after application, rating scale 0-100
In short: as §1

[7] = system: barnyardgrass (Echinochloa crus-galli, ECHCG); experiment: as above; conditions: post-emerge, 14 days after application, rating scale 0-100
In short: as §1

[8] = system: green foxtail (Setaria viridis, SETVI); experiment: as above; conditions: post-emerge, 14 days after application, rating scale 0-100
In short: as §1

[9] = system: velvetleaf (Abutilon theophrasti, ABUTH); experiment: as above; conditions: post-emerge, 14 days after application, rating scale 0-100
In short: as §1

[10] = system: redroot pigweed (Amaranthus retroflexus, AMARE); experiment: Pre-emerge test, greenhouse herbicide activity screening; conditions: pre-emerge, 14 days after application, rating scale 0-100
In short: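 Rating: 0–100 visual injury, 14 DAA. Application: acetone, 187 l/ha, 15–1000 g ai/ha, flat-fan track sprayer with nozzle 40–45 cm above soil or canopy. Post-emerge runs used 0.25% v/v surfactant on 2–3 leaf plants.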

[11] = system: upland rice (Oryza sp., var. Tebonnet, RICE); experiment: Post-emerge test, crop safety; conditions: post-emerge, 14 days after application, rating scale 0-100
In short: (§2)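 Sandy loam pots; pre-emerge: sown 1 d pre-spray, surface-watered after, then bottom-watered. Post-emerge: sown 8–21 d before, 2–3 leaf stage, + 0.25% v/v NIS, bottom-watered. Acetone, 187 l/ha track spray, 15–1000 g ai/ha. 0–100 injury score, day 14.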

[12] = system: field corn (Zea mays L., var. Dekalb 535, CORN); experiment: Post-emerge test, crop safety; conditions: post-emerge, 14 days after application, rating scale 0-100
In short: as §2

[13] = system: ivyleaf morningglory (Ipomoea hederacea, IPOHE); experiment: Pre-emerge test, greenhouse herbicide activity screening; conditions: pre-emerge, 14 days after application, rating scale 0-100
In short: as §2

[14] = system: johnsongrass (Sorghum halepense, SORHA); experiment: as above; conditions: pre-emerge, 14 days after application, rating scale 0-100
In short: as §2

[15] = system: lambsquarters (Chenopodium album, CHEAL); experiment: as above; conditions: pre-emerge, 14 days after application, rating scale 0-100
In short: as §2

[16] = system: large crabgrass (Digitaria sanguinalis, DIGSA); experiment: as above; conditions: pre-emerge, 14 days after application, rating scale 0-100
In short: as §2

[17] = system: sicklepod (Cassia obtusifolia, CASOB); experiment: as above; conditions: pre-emerge, 14 days after application, rating scale 0-100
In short: as §2

[18] = system: barnyardgrass (Echinochloa crus-galli, ECHCG); experiment: as above; conditions: pre-emerge, 14 days after application, rating scale 0-100
In short: as §2

[19] = system: green foxtail (Setaria viridis, SETVI); experiment: as above; conditions: pre-emerge, 14 days after application, rating scale 0-100
In short: as §2

[20] = system: velvetleaf (Abutilon theophrasti, ABUTH); experiment: as above; conditions: pre-emerge, 14 days after application, rating scale 0-100
In short: as §2

[21] = system: upland rice (Oryza sp., var. Tebonnet, RICE); experiment: Pre-emerge test, crop safety; conditions: pre-emerge, 14 days after application, rating scale 0-100
In short: (§3)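 Compounds in acetone were track-sprayed at 15-1000 g ai/ha (187 l/ha) on sandy loam pots: pre-emerge one day after seeding, post-emerge at 2-3 leaf stage with 0.25% v/v non-ionic surfactant. Phytotoxicity was rated 14 days later on a 0 (no damage) to 100 (complete death) scale.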

[22] = system: field corn (Zea mays L., var. Dekalb 535, CORN); experiment: Pre-emerge test, crop safety; conditions: pre-emerge, 14 days after application, rating scale 0-100
In short: as §3

[23] = 63 g ai/ha, rating scale 0-100 (0 no damage, 100 complete death)
[24] = 250 g ai/ha, rating scale 0-100

COc1c(Cl)cc(F)c(-n2c(=O)cc(C(F)(F)F)n(C)c2=O)c1NN=CCCSC [15-14]
55: Post-emerge Herbicidal Activity SETVI (phytotoxicity rating) ([8]; 250 g ai/ha)
90: Post-emerge Herbicidal Activity ECHCG (phytotoxicity rating) ([7]; 250 g ai/ha) | phytotoxicity rating CASOB ([17]; 63 g ai/ha)
65: Post-emerge Herbicidal Activity CORN (crop damage rating) ([12]; 250 g ai/ha)
60: Post-emerge Herbicidal Activity DIGSA (phytotoxicity rating) ([5]; 250 g ai/ha)
70: Post-emerge Herbicidal Activity SORHA (phytotoxicity rating) ([2]; 250 g ai/ha)
50: Post-emerge Herbicidal Activity RICE (crop damage rating) ([11]; 250 g ai/ha)
100: Post-emerge Herbicidal Activity IPOHE (phytotoxicity rating) ([1]; 63 g ai/ha) | Post-emerge Herbicidal Activity IPOHE (phytotoxicity rating) ([1]; 250 g ai/ha) | Post-emerge Herbicidal Activity CHEAL (phytotoxicity rating) ([3]; 63 g ai/ha) | Post-emerge Herbicidal Activity CHEAL (phytotoxicity rating) ([3]; 250 g ai/ha) | Post-emerge Herbicidal Activity AMARE (phytotoxicity rating) [4, 23] | Post-emerge Herbicidal Activity AMARE (phytotoxicity rating) [4, 24] | Post-emerge Herbicidal Activity CASOB (phytotoxicity rating) ([6]; 250 g ai/ha) | Post-emerge Herbicidal Activity ABUTH (phytotoxicity rating) ([9]; 63 g ai/ha) | Post-emerge Herbicidal Activity ABUTH (phytotoxicity rating) ([9]; 250 g ai/ha) | phytotoxicity rating AMARE ([10]; 63 g ai/ha) | phytotoxicity rating AMARE ([10]; 250 g ai/ha) | phytotoxicity rating IPOHE ([13]; 63 g ai/ha) | phytotoxicity rating IPOHE ([13]; 250 g ai/ha) | phytotoxicity rating SORHA ([14]; 63 g ai/ha) | phytotoxicity rating SORHA ([14]; 250 g ai/ha) | phytotoxicity rating CHEAL ([15]; 63 g ai/ha) | phytotoxicity rating CHEAL ([15]; 250 g ai/ha) | phytotoxicity rating DIGSA ([16]; 63 g ai/ha) | phytotoxicity rating DIGSA ([16]; 250 g ai/ha) | phytotoxicity rating CASOB ([17]; 250 g ai/ha) | phytotoxicity rating ECHCG ([18]; 63 g ai/ha) | phytotoxicity rating ECHCG ([18]; 250 g ai/ha) | phytotoxicity rating SETVI ([19]; 63 g ai/ha) | phytotoxicity rating SETVI ([19]; 250 g ai/ha) | phytotoxicity rating ABUTH ([20]; 63 g ai/ha) | phytotoxicity rating ABUTH ([20]; 250 g ai/ha) | phytotoxicity rating RICE ([21]; 250 g ai/ha)
99: phytotoxicity rating RICE ([21]; 63 g ai/ha) | phytotoxicity rating CORN ([22]; 250 g ai/ha)
40: Post-emerge Herbicidal Activity RICE (crop damage rating) ([11]; 63 g ai/ha) | phytotoxicity rating CORN ([22]; 63 g ai/ha)
20: Post-emerge Herbicidal Activity SORHA (phytotoxicity rating) ([2]; 63 g ai/ha) | Post-emerge Herbicidal Activity DIGSA (phytotoxicity rating) ([5]; 63 g ai/ha) | Post-emerge Herbicidal Activity ECHCG (phytotoxicity rating) ([7]; 63 g ai/ha) | Post-emerge Herbicidal Activity SETVI (phytotoxicity rating) ([8]; 63 g ai/ha) | Post-emerge Herbicidal Activity CORN (crop damage rating) ([12]; 63 g ai/ha)
80: Post-emerge Herbicidal Activity CASOB (phytotoxicity rating) ([6]; 63 g ai/ha)

COc1c(Cl)cc(F)c(-n2c(=O)cc(C(F)(F)F)n(C)c2=O)c1NN=CCc1ccccc1 [15-15]
99: Post-emerge Herbicidal Activity SORHA (phytotoxicity rating) ([2]; 250 g ai/ha)
45: Post-emerge Herbicidal Activity CORN (crop damage rating) ([12]; 63 g ai/ha)
80: Post-emerge Herbicidal Activity CASOB (phytotoxicity rating) ([6]; 63 g ai/ha)
40: Post-emerge Herbicidal Activity DIGSA (phytotoxicity rating) ([5]; 63 g ai/ha) | Post-emerge Herbicidal Activity SETVI (phytotoxicity rating) ([8]; 63 g ai/ha)
95: Post-emerge Herbicidal Activity SETVI (phytotoxicity rating) ([8]; 250 g ai/ha) | Post-emerge Herbicidal Activity RICE (crop damage rating) ([11]; 250 g ai/ha) | phytotoxicity rating RICE ([21]; 63 g ai/ha) | phytotoxicity rating CORN ([22]; 63 g ai/ha)
90: Post-emerge Herbicidal Activity IPOHE (phytotoxicity rating) ([1]; 63 g ai/ha) | Post-emerge Herbicidal Activity CORN (crop damage rating) ([12]; 250 g ai/ha)
70: Post-emerge Herbicidal Activity RICE (crop damage rating) ([11]; 63 g ai/ha)
30: Post-emerge Herbicidal Activity SORHA (phytotoxicity rating) ([2]; 63 g ai/ha) | Post-emerge Herbicidal Activity ECHCG (phytotoxicity rating) ([7]; 63 g ai/ha)
100: Post-emerge Herbicidal Activity IPOHE (phytotoxicity rating) ([1]; 250 g ai/ha) | Post-emerge Herbicidal Activity CHEAL (phytotoxicity rating) ([3]; 63 g ai/ha) | Post-emerge Herbicidal Activity CHEAL (phytotoxicity rating) ([3]; 250 g ai/ha) | Post-emerge Herbicidal Activity AMARE (phytotoxicity rating) [4, 23] | Post-emerge Herbicidal Activity AMARE (phytotoxicity rating) [4, 24] | Post-emerge Herbicidal Activity DIGSA (phytotoxicity rating) ([5]; 250 g ai/ha) | Post-emerge Herbicidal Activity CASOB (phytotoxicity rating) ([6]; 250 g ai/ha) | Post-emerge Herbicidal Activity ECHCG (phytotoxicity rating) ([7]; 250 g ai/ha) | Post-emerge Herbicidal Activity ABUTH (phytotoxicity rating) ([9]; 63 g ai/ha) | Post-emerge Herbicidal Activity ABUTH (phytotoxicity rating) ([9]; 250 g ai/ha) | phytotoxicity rating AMARE ([10]; 63 g ai/ha) | phytotoxicity rating AMARE ([10]; 250 g ai/ha) | phytotoxicity rating IPOHE ([13]; 63 g ai/ha) | phytotoxicity rating IPOHE ([13]; 250 g ai/ha) | phytotoxicity rating SORHA ([14]; 63 g ai/ha) | phytotoxicity rating SORHA ([14]; 250 g ai/ha) | phytotoxicity rating CHEAL ([15]; 63 g ai/ha) | phytotoxicity rating CHEAL ([15]; 250 g ai/ha) | phytotoxicity rating DIGSA ([16]; 63 g ai/ha) | phytotoxicity rating DIGSA ([16]; 250 g ai/ha) | phytotoxicity rating CASOB ([17]; 63 g ai/ha) | phytotoxicity rating CASOB ([17]; 250 g ai/ha) | phytotoxicity rating ECHCG ([18]; 63 g ai/ha) | phytotoxicity rating ECHCG ([18]; 250 g ai/ha) | phytotoxicity rating SETVI ([19]; 63 g ai/ha) | phytotoxicity rating SETVI ([19]; 250 g ai/ha) | phytotoxicity rating ABUTH ([20]; 63 g ai/ha) | phytotoxicity rating ABUTH ([20]; 250 g ai/ha) | phytotoxicity rating RICE ([21]; 250 g ai/ha) | phytotoxicity rating CORN ([22]; 250 g ai/ha)
